Results: patent publication US20060063707A1, “Compositions for enhancing memory and methods therefor” (Lifelike Biomatic, Inc., priority 2004, published 2006)
pEC50: −log10 of the molar value. Entries after “also recorded” stand apart in the source; their conditions may differ.

Columns and labels:
[1] = test system: adult mice hippocampal slices; assay: LTP induction in hippocampal slices (EPSP slopes in CA1 after theta-burst stimulation); assay type: cell-based
Procedure: Adult mice hippocampal slices were prepared according to standard procedures as described in Dunwiddie and Lynch (J. Physiol. 276:353-367. 1978). Briefly, mice were decapitated following anesthesia, the brains rapidly removed and the hippocampus dissected. Transverse hippocampal slices (400 μm thick) were cut with a McIllwain tissue slicer (Stoelting Co., Wood Dale, Ill.). Slices were pre-incubated for at least 60 min in an artificial cerebrospinal fluid (aCSF) containing (in mM) NaCl (124), KCl (3), KH2PO4 (1.25), MgSO4 (2.5), CaCl2 (3.4), NaHCO3 (26), glucose (10); and L-ascorbate (2) before being placed in a recording chamber. Slices were continuously perfused with aCSF containing no added drug, 20 μM CX546, 2 μM D, L-serine, or a combination of 20 μM CX546 and 2 μM D, L-serine. A stimulating electrode was placed in the stratum radiatum at the junction of CA3 and CA1 and a recording electrode was placed in the stratum radiatum of CA1. Baseline recording with a stimulation frequency of 0.033 Hz was done for at least 10 min. After obtaining a stable baseline for 10 min, LTP was elicited in CA1 stratum radiatum by stimulation of the Schaffer collateral pathways by using high frequency stimulation of 5 bursts of 3 pulses at 100 Hz, with the bursts delivered at the theta frequency, i.e., 5 Hz. Low frequency stimulation was resumed and responses recorded for at least 30 min.
Slopes of the extracellular postsynaptic potentials (EPSPs) were calculated and expressed as percent of the average values recorded during the 10 min baseline period. Results were averaged and expressed as means±s.e.m.
In particular, slices were prepared as cited above and EPSPs were evoked in CA1 stratum radiatum by stimulation of the Schaffer collateral pathways once every 30 seconds. At t=0, high frequency stimulation (5 bursts of 3 pulses at 100 Hz with bursts delivered at 5 Hz) was delivered, and low frequency stimulation resumed. Slopes of EPSPs were calculated and expressed as percent over the average values during the 10 minute baseline. […] The data of FIG. 3 therefore represent the means±s.e.m., of 8 slices for control conditions (●), and 6 slices for the combination of 250 μM piracetam and 2 μM D, L-serine (▪). Results were statistically significant with ANOVA with repeated measures.
Slices were incubated in control medium. LB-302 (100 μM) was added to the medium at t=20 min and LTP was induced as in Example 1 by using high frequency stimulation of 5 bursts of 3 pulses at 100 Hz, with the bursts delivered at the theta frequency, i.e., 5 Hz delivered at t=47 min.

GluR4 flip [2] = target: T1, GluR4 flip (Homo sapiens, UniProt P48058); assay: Potentiation of L-glutamate mediated currents on HEK cells expressing GluR4 flip (Ornstein et al.); assay type: cell-based
T1 construct: expressed in transfected cells; host or cells: HEK cells
Procedure: From a study of the structure-activity relationship of the compounds of Ornstein (Ornstein, et al., 2000, ibid), a derivative of LY404187 designated 22h was chosen to provide the ampakine functionality of the new fusion molecule. The structural difference between LY404187 and the 22h derivative is that 22h has an amino substituent on the distal aromatic ring of the biphenyl group instead of a cyano substituent.

LTP = conditions: agent alone; cited from earlier work
[3] = test system: scopolamine-induced learning and memory deficits; assay: Morris water maze, scopolamine-induced learning deficits (escape latency); assay type: in vivo, Male Wistar rats
Procedure: Learning and memory performance: Learning and memory performances were tested in the conventional Morris water maze according to the following procedure. The Morris maze includes a circular water tank (150 cm in diameter) filled with water and maintained at 27° C. with an escape platform (15 cm in diameter) 18 cm from the perimeter always in the same position 2 cm beneath the surface of the water. The water is made opaque by addition of milk powder rendering the platform invisible.
Male Wistar rats (200-230 g body weight, maintained in standard laboratory conditions) were given a single training session on one day. A training session consists of 4 consecutive trials (T1-T4) in the Morris water maze separated by 60 seconds. For each trial the animal is placed in the maze at one of two starting points equidistant from the escape platform and allowed to find the escape platform. The animal is left on the escape platform for 60 seconds before starting a new trial. […] During the 4 trials the animals start the maze twice from each starting point in a randomly determined order per animal. The time the animal takes to find the escape platform is referred to as the “escape latency.”
Measure of escape latency in control and test animals: The ampakine, the nemdakine, and the combination of ampakine and nemdakine of the present invention were administered p.o. to test animals 60 minutes before a test session in the maze (t=−60 min). Scopolamine was administered i.p. to induce learning and memory deficits 30 minutes later, i.e., 30 minutes before the test session in the maze (t=−30 min). Scopolamine induces amnesia as shown by the failure of scopolamine-treated animals to reduce their escape latencies from trial to trial. […]
The principal measure taken at each trial was the escape latency. Measures consisted in the time the animals took to find the platform and were analyzed by ANOVA with repeated measures. […]

GluR4 flip [4] = target: T1, GluR4 flip; conditions: HEK cells expressing GluR4 flip; read-out: potentiation of the L-glutamate mediated currents; cited from earlier work
[5] = test system: AMPA-induced currents in cerebellar Purkinje cells as well as in hippocampal pyramidal neurons; assay: Increase of AMPA-induced currents in neurons (Gates et al.); assay type: cell-based
Text: The ampakine functionality of LB-253-4c is a biarylpropylsulfonamide (Ornstein et al., ibid). […] The new fusion molecule, LB-253-4c, therefore, likely has a different mode of action compared to that of cyclothiazide, a mode of action more directed towards deactivation instead of desensitization.

T1 sequence (P48058 21-902): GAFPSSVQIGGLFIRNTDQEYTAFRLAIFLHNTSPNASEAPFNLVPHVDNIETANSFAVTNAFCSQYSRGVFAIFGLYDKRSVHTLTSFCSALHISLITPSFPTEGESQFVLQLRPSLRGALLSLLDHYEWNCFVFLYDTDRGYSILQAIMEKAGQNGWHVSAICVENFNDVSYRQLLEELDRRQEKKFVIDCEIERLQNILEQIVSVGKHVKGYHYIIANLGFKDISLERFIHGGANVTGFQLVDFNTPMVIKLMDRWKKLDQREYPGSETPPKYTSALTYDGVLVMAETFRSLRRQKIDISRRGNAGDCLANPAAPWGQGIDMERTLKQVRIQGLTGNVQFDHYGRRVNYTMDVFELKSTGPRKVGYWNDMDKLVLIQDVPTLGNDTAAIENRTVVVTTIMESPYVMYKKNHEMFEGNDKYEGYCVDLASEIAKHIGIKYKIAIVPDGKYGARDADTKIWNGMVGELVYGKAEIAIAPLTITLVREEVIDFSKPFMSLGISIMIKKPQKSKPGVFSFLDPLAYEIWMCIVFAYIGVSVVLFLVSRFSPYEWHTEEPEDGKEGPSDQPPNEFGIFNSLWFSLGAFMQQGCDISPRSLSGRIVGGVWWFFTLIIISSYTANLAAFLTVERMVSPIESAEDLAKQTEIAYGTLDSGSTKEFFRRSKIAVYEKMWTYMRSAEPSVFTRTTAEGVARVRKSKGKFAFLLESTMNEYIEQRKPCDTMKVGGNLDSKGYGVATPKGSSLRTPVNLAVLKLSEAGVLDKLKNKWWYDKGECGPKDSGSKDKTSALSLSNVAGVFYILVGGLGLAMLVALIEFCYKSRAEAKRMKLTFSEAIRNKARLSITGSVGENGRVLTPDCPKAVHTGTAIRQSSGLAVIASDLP

With NC(CO)C(=O)O (racemic) [D, L-serine] the “levels of potentiation / responses (EPSP slope) as compared to control slices” value ([1]; 2 μM D, L-serine alone) was “did not modify the levels of potentiation; also recorded: did not produce any significant effect”.
In the case of CC(CNS(=O)(=O)C(C)C)c1ccc(-c2ccc(N)cc2)cc1 (centres unmarked) [22h], the “activity relative to LY404187” value (GluR4 flip [2]) was “about 2 fold”.
For N[C@H](CO)C(=O)O [D-serine], the “concentration known to facilitate LTP” value (LTP) is given as 10 µM and the “reversal of scopolamine-induced impairment” value ([3]; 1000 mg/kg p.o. at t=−60 min, then scopolamine 0.5 mg/kg i.p.) is given as “statistically significant reversal of scopolamine-induced impairment”.
For NC(CO)(CC1=CCN(Cc2ccccc2)CC1)C(=O)O (centres unmarked) [LB-302, 2-amino-3-(1-benzyl-1,2,3,6-tetrahydro-pyridin-4-yl)-2-hydroxymethyl-propionic acid], the LTP amplitude ([1]; LB-302 100 μM) was “dramatic increase in LTP amplitude” and the baseline response ([1]; LB-302 100 μM) was “small increase in baseline response”.
In the case of CC(CNS(=O)(=O)C(C)C)c1ccc(-c2ccc(C#N)cc2)cc1 (centres unmarked) [LY404187, N-2-(4-(cyanophenyl)phenyl)propyl-2-propanesulfonamide], the pEC50 (GluR4 flip [4]) is given as 6.54 and the “potency relative to CX546” value [5] is given as “about 1000 times”.
In the case of NC(=O)CN1CCCC1=O [piracetam], the “reversal of scopolamine-induced learning impairment” value ([3]; 500 mg/kg p.o. at t=−60 min, then scopolamine 0.5 mg/kg i.p.) was “trend towards a reversal of scopolamine-induced learning impairment, although this effect did not reach statistical significance” and the “effect on the responses (EPSP slope)” value ([1]; piracetam 250 μM alone) was “did not produce any significant effect”.
For CN1[C@@H]2C[C@@H](OC(=O)[C@H](CO)c3ccccc3)C[C@H]1[C@@H]1O[C@@H]12 [scopolamine], the “performance (escape latency) across the 4 trials” value ([3]; scopolamine alone 0.5 mg/kg i.p. at t=−30 min) was “failed to improve their performance across the 4 trials”.
